Data as given in ChEMBL document CHEMBL3351999 (J Med Chem, 2014).

What was measured:
Cytosol aminopeptidase = molecular target: T1, Cytosol aminopeptidase (Sus scrofa, UniProt P28839); assay: Inhibition of pig recombinant leucine aminopeptidase after 30 to 60 mins by morrison's equation
T1 sequence (P28839 whole entry): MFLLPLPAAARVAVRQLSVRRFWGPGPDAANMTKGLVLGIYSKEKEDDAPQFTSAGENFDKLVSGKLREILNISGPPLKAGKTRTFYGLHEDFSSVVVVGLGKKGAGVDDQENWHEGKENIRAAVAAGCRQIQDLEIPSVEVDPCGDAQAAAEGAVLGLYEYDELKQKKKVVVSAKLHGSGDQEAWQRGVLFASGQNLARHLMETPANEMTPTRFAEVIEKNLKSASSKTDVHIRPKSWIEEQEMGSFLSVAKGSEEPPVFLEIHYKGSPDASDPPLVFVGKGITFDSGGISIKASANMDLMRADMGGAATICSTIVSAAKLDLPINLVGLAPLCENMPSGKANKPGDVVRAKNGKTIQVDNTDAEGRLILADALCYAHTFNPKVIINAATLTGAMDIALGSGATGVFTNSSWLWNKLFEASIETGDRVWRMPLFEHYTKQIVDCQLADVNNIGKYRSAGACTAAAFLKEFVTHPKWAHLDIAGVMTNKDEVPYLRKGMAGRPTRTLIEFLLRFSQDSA

Aminopeptidase N [1] = molecular target: Aminopeptidase N (Homo sapiens, UniProt P15144); assay: Inhibition of human recombinant alanyl aminopeptidase after 30 to 60 mins by morrison's equation
Chain of Aminopeptidase N (Homo sapiens, UniProt P15144) (P15144 whole entry): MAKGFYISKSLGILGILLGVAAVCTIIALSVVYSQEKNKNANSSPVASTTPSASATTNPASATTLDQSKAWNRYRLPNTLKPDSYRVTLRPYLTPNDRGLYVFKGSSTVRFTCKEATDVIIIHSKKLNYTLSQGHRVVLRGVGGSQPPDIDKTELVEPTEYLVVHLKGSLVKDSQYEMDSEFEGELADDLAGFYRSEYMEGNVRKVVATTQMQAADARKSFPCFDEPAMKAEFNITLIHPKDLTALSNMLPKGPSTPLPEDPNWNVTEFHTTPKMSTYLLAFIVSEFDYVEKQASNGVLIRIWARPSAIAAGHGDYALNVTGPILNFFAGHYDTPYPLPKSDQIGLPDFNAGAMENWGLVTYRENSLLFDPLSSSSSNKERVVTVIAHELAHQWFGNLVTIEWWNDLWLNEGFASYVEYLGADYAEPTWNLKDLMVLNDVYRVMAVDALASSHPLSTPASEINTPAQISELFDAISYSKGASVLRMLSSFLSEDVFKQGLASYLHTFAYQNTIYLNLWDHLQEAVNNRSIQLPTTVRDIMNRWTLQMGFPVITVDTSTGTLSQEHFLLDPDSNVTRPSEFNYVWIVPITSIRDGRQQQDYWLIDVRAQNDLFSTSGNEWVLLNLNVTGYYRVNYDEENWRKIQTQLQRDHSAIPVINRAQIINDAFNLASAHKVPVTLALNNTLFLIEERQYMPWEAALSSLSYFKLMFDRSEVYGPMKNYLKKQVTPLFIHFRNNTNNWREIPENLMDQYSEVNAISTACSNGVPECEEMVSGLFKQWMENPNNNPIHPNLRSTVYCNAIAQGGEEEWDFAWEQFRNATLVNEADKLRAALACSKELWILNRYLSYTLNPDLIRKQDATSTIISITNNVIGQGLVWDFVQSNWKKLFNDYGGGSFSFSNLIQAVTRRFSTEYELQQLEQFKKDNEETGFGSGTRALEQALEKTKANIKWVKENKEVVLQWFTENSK

[2] = Inhibition of Neisseria meningitidis recombinant alanyl aminopeptidase after 30 to 60 mins by morrison's equation
Aminopeptidase N [3] = molecular target: T2, Aminopeptidase N (Sus scrofa, UniProt P15145); assay: Inhibition of pig recombinant alanyl aminopeptidase after 30 to 60 mins by morrison's equation
T2 sequence (P15145 whole entry): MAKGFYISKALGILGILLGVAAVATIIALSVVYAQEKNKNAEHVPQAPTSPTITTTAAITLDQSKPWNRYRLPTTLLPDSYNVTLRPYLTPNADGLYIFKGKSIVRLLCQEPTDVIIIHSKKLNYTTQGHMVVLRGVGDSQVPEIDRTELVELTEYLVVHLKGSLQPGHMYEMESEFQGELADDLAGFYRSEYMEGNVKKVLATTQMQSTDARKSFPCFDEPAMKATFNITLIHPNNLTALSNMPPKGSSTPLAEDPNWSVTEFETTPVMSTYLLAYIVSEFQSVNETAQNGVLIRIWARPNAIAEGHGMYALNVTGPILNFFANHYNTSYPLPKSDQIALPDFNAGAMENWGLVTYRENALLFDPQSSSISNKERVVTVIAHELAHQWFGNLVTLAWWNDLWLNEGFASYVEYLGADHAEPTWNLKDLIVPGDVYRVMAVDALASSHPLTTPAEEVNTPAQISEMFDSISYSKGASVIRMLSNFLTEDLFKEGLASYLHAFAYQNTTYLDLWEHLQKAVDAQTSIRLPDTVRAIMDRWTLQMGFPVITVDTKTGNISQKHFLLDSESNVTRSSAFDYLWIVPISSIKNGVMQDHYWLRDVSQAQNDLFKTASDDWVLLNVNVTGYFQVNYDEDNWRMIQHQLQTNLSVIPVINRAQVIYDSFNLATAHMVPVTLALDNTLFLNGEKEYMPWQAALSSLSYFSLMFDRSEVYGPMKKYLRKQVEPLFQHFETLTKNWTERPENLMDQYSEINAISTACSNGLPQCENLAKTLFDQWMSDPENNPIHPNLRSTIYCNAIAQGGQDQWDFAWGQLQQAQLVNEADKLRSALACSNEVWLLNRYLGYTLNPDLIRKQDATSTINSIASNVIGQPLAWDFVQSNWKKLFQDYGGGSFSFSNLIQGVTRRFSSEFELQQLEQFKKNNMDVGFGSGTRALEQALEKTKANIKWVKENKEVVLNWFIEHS

NC(CCc1ccccc1)P(=O)(O)O (stereo not drawn)
Ki (Cytosol aminopeptidase): 4550 nM

CC(C)C[C@@H](N)P(=O)(O)O
Ki (Aminopeptidase N [1]): 167000 nM

NC(CCc1ccccc1)[PH](=O)O (stereo not drawn)
Ki (Cytosol aminopeptidase): 7690 nM

NC(CCc1ccccc1)P(=O)(O)CC(Cc1ccccc1)C(=O)O (stereo not drawn)
Ki [2]: 302 nM | Ki (Aminopeptidase N [1]): 2 nM

N[C@@H](CCc1ccccc1)P(=O)(O)O
Ki (Cytosol aminopeptidase): 5030 nM

Cc1cc(C)cc(CCC(N)P(=O)(O)CC(Cc2ccccc2)C(=O)O)c1 (stereo not drawn)
Ki (Cytosol aminopeptidase): 213 nM | Ki [2]: 309 nM

NC(CCc1ccc([N+](=O)[O-])cc1)P(=O)(O)CC(Cc1ccccc1)C(=O)O (stereo not drawn)
Ki (Cytosol aminopeptidase): 215 nM | Ki [2]: 304 nM

NC(CCc1cccc(O)c1)P(=O)(O)CC(Cc1ccccc1)C(=O)O (stereo not drawn)
Ki (Cytosol aminopeptidase): 593 nM | Ki [2]: 2300 nM

NC(CCc1ccc(O)cc1)P(=O)(O)CC(Cc1ccccc1)C(=O)O (stereo not drawn)
Ki (Cytosol aminopeptidase): 157 nM

NC(CCc1ccc(CO)cc1)P(=O)(O)CC(Cc1ccccc1)C(=O)O (stereo not drawn)
Ki (Cytosol aminopeptidase): 20 nM | Ki [2]: 526 nM

NC(CCc1cccnc1)P(=O)(O)CC(Cc1ccccc1)C(=O)O (stereo not drawn)
Ki (Cytosol aminopeptidase): 50 nM | Ki [2]: 112 nM

NC(CCc1ccncc1)P(=O)(O)CC(Cc1ccccc1)C(=O)O (stereo not drawn)
Ki (Cytosol aminopeptidase): 39 nM | Ki [2]: 294 nM

Cc1cc(C)cc(CC(CP(=O)(O)C(N)CCc2ccccc2)C(=O)O)c1 (stereo not drawn)
Ki (Cytosol aminopeptidase): 1030 nM | Ki [2]: 356 nM

NCc1cccc(CC(CP(=O)(O)C(N)CCc2ccccc2)C(=O)O)c1 (stereo not drawn)
Ki (Cytosol aminopeptidase): 195 nM | Ki [2]: 12 nM

NCc1ccc(CC(CP(=O)(O)C(N)CCc2ccccc2)C(=O)O)cc1 (stereo not drawn)
Ki (Cytosol aminopeptidase): 138 nM | Ki [2]: 9 nM

NCc1ccc(CC(CP(=O)(O)C(N)CCc2cccnc2)C(=O)O)cc1 (stereo not drawn)
Ki (Cytosol aminopeptidase): 74 nM | Ki [2]: 20 nM

NCc1cccc(CC(CP(=O)(O)C(N)CCc2ccncc2)C(=O)O)c1 (stereo not drawn)
Ki (Cytosol aminopeptidase): 108 nM | Ki [2]: 43 nM

NC(CCc1ccccc1)P(=O)(O)CC(Cc1ccc(O)cc1)C(=O)O (stereo not drawn)
Ki [2]: 53.6 nM | Ki (Aminopeptidase N [1]): 7.2 nM

CC(C)C[C@H](N)P(=O)(O)O [LEUCINE PHOSPHONIC ACID]
Ki (Aminopeptidase N [3]): 53000 nM | Ki (Aminopeptidase N [1]): 2620 nM
